These results are taken from ChEMBL document CHEMBL1146072, “Structure-activity relationship studies on N3-substituted willardiine derivatives acting as AMPA or kainate receptor antagonists” (J Med Chem, 2006).

Active and inactive are the calls of the source. The rule behind the calls is not given here.

Test [1] deals with Glutamate receptor ionotropic, AMPA (Rattus norvegicus, UniProt P19490+P19491+P19492+P19493).
Description: Antagonist activity against AMPA receptor expressed in motoneurones by inhibition of fDR-VRP in the neonatal rat spinal cord
Test [2] is described as follows: Inhibition of glutamate-induced calcium influx in HEK293 cells expressing human GLUK5/GLUK6 by FLIPR assay. Type of test: functional, cell-based.
A short description of test [3]: Inhibition of glutamate-induced calcium influx in HEK293 cells expressing human GLUK5/GLUK2 by FLIPR assay. The test is classed as functional, cell-based.
The target of test [4] is T1, Glutamate receptor 1 (Homo sapiens, UniProt P42261). Nature of the test: Inhibition of glutamate-induced calcium influx in HEK293 cells expressing human GLUA1. The test is classed as functional, cell-based.
T1 sequence (P42261 whole entry): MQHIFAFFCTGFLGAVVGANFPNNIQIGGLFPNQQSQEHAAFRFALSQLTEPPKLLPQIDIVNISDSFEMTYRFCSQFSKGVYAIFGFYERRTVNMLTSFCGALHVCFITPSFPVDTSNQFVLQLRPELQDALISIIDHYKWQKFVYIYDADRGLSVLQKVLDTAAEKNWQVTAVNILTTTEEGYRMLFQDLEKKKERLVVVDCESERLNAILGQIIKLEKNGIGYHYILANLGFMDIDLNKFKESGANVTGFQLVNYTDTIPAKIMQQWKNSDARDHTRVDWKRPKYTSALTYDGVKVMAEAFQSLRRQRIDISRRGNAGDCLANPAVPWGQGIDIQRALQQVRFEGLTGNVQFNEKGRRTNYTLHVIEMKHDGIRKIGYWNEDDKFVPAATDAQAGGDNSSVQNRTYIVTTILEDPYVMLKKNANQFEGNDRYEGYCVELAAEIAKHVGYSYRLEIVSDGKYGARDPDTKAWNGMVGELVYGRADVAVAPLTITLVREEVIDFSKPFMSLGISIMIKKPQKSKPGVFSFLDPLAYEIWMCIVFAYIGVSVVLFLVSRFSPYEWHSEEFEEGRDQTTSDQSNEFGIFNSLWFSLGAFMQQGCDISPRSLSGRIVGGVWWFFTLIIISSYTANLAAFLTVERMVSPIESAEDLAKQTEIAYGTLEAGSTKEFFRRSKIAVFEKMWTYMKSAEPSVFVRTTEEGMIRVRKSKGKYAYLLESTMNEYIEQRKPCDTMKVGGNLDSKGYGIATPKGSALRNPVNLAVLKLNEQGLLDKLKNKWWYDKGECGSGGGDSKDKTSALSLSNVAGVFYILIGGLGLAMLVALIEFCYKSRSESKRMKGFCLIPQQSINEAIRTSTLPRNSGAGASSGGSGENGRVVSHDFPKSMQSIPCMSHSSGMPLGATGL
In test [5] the target is Glutamate receptor ionotropic, kainate 2 (Rattus norvegicus, UniProt P42260). Nature of the test: Displacement of [3H]kainate from rat GLUK6 expressed in HEK293 cells. The test is classed as cell-based.
Glutamate receptor ionotropic, kainate 2, sequence (P42260 whole entry): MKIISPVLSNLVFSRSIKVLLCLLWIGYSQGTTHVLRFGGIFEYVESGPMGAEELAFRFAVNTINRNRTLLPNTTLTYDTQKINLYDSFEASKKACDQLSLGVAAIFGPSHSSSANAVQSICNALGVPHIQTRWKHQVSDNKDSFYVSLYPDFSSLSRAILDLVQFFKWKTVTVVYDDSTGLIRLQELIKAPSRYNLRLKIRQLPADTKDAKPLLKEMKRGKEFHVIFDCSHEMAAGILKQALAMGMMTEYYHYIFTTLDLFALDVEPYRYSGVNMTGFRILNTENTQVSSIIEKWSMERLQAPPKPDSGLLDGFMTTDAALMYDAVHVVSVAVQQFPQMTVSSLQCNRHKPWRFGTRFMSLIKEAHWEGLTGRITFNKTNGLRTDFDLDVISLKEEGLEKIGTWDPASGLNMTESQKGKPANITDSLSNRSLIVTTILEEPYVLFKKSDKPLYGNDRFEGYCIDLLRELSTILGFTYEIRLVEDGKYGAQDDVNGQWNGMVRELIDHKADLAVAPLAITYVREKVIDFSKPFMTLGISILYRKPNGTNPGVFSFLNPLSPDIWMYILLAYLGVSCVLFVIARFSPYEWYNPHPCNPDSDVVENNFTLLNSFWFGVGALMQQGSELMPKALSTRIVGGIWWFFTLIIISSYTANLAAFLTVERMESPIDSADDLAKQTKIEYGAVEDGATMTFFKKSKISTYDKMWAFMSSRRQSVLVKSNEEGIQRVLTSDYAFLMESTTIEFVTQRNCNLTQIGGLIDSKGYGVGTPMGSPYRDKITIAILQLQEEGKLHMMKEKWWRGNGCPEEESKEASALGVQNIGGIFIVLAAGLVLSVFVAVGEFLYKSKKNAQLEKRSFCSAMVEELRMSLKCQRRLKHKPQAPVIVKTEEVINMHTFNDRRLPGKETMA
Test [6] can be described thus: Induction of calcium influx in HEK293 cells expressing human GLUK5/GLUK6 by FLIPR assay.
Test [7] in a line: Induction of calcium influx in HEK293 cells expressing human GLUK5/GLUK2 by FLIPR assay.
Test [8] deals with Metabotropic glutamate receptor 1 (Rattus norvegicus) (UniProt P23385). The test is described as follows: Activity against DHPG-induced depolarization of neonatal rat motoneurons expressing mGlu1 receptor at 50 uM.
Test [9] addresses Metabotropic glutamate receptor 5 (Rattus norvegicus) (UniProt P31424). Nature of the test: Activity against DHPG-induced depolarization of neonatal rat motoneurons expressing mGlu5 receptor at 50 uM.
The target in test [10] is Glutamate receptor ionotropic, kainate 1 (Homo sapiens, UniProt P39086). Nature of the test: Inhibition of glutamate-induced calcium influx in HEK293 cells expressing human GLUK5 by FLIPR assay. Type of test: functional, cell-based.
Glutamate receptor ionotropic, kainate 1, sequence (P39086 whole entry): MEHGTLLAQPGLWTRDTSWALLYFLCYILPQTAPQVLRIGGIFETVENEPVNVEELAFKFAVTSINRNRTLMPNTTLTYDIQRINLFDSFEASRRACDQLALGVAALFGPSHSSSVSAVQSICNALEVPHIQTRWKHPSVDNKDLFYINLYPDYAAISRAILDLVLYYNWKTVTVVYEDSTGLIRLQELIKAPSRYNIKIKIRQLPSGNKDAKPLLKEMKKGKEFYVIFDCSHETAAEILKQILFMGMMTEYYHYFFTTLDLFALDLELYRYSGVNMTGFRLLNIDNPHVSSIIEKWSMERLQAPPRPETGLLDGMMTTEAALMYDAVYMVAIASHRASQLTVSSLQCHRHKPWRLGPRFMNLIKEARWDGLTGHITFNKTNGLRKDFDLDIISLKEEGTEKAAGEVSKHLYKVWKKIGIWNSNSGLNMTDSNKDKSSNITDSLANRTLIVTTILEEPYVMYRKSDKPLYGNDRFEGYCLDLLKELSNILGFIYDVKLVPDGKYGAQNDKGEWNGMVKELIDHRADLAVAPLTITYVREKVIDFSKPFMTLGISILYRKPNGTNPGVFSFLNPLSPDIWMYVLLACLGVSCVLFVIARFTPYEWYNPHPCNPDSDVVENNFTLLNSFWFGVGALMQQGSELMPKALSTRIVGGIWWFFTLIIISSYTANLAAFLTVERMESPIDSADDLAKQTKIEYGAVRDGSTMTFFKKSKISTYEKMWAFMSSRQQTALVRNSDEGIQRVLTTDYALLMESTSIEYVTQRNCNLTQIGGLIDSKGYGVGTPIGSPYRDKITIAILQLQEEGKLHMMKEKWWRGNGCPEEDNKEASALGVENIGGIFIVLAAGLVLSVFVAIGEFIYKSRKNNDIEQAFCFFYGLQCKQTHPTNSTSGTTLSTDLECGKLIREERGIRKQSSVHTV
Test [11] has as its target T1, Glutamate receptor 1. Nature of the test: Inhibition of glutamate-induced calcium influx in HEK293 cells expressing human GLUA1 up to 100 uM. The test is classed as functional, cell-based.
Test [12] deals with Glutamate receptor 2 (Homo sapiens) (UniProt P42262). Nature of the test: Inhibition of glutamate-induced calcium influx in HEK293 cells expressing human GLUA2 up to 100 uM. The test is classed as functional, cell-based.
For a further test, the target named is Glutamate receptor 4 (Homo sapiens, UniProt P48058). Nature of the test: Inhibition of glutamate-induced calcium influx in HEK293 cells expressing human GLUA4 up to 100 uM. The test is classed as functional, cell-based.
Glutamate receptor 4, sequence (P48058 whole entry): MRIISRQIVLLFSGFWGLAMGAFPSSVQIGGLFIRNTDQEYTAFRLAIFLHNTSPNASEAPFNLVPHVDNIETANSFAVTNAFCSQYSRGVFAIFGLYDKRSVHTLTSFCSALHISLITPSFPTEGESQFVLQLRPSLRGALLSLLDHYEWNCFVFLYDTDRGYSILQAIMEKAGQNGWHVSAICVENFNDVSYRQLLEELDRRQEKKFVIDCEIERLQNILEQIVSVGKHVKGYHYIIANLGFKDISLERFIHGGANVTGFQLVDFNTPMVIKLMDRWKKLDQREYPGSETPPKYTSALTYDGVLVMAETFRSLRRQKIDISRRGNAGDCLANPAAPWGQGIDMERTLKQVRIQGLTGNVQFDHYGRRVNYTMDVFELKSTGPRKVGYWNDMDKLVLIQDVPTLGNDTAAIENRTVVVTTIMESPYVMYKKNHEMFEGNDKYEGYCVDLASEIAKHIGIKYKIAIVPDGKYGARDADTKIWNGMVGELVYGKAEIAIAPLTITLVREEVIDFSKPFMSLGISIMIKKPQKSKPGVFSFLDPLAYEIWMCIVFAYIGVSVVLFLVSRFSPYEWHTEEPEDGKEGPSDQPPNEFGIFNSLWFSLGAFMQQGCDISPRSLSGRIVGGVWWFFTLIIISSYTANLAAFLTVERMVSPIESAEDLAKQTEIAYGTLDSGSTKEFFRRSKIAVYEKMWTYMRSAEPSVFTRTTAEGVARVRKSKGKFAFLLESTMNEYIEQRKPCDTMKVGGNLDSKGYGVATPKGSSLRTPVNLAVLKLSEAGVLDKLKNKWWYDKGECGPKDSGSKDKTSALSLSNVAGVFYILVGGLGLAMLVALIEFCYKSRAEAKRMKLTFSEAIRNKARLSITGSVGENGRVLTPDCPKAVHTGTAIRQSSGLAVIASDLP
Test [13] addresses Glutamate NMDA receptor (Rattus norvegicus) (UniProt P35439+Q00959+Q00960+Q00961+Q62645+Q8VHN2+Q9R1M7). The test is described as follows: Activity against NMDA-induced depolarization of neonatal rat motoneurons expressing NMDA receptor at 50 uM. Type of test: protein-complex assay.

Metabotropic glutamate receptor 5 (Rattus norvegicus), sequence (P31424 21-1203 limits assumed): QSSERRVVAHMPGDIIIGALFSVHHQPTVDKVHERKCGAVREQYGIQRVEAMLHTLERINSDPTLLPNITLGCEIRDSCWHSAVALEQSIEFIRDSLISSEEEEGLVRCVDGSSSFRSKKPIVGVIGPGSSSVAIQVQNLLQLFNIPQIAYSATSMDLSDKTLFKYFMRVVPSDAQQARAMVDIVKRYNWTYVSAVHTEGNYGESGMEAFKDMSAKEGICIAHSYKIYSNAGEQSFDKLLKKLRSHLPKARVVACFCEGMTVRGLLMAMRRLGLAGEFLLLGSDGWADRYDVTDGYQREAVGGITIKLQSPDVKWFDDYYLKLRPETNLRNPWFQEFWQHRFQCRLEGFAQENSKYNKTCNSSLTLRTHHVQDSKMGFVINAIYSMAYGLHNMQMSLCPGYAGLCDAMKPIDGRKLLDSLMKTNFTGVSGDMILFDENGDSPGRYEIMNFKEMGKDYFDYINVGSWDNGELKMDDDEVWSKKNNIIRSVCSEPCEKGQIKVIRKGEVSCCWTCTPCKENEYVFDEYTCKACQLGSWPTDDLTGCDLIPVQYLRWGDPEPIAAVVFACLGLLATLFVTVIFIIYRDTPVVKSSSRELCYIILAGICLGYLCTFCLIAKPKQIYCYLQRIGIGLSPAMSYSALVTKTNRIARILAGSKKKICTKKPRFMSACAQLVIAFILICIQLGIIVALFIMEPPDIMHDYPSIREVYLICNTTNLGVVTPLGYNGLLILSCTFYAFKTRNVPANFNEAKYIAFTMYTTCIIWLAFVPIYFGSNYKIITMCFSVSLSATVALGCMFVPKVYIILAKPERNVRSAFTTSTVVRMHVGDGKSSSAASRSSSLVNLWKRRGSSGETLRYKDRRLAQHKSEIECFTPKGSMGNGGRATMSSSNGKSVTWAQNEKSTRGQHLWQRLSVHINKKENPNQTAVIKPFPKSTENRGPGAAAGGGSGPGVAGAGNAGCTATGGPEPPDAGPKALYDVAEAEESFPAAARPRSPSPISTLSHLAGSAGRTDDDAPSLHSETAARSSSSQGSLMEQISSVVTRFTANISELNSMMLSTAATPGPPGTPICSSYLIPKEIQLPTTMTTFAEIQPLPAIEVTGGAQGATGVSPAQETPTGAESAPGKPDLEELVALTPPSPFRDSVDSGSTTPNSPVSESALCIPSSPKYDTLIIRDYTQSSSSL

Regarding `N[C@@H](Cn1ccc(=O)n(Cc2ccccc2P(=O)(O)O)c1=O)C(=O)O`, the half-inhibitory concentration (IC50) (commonly the concentration that inhibits the measured activity by half) in test [1] was above 100 µM.
For `NS(=O)(=O)c1cccc2c1c([N+](=O)[O-])cc1nc(O)c(O)nc12` [NBQX], the half-maximal inhibitory concentration (IC50) in [2] was determined as 28 µM; in [3] it was 50 µM; on Glutamate receptor 1 [4], 6 µM.
Turning to `N[C@H](Cn1ccc(=O)n(Cc2ccsc2C(=O)O)c1=O)C(=O)O`, in [5], the Ki (as a rule, the dissociation constant of the complex between target and ligand, obtained from inhibition or displacement) is above 1000 µM. Moreover, in test [1], the concentration for half-maximal inhibition (IC50) was above 100 µM.
In test [5], `N[C@@H](Cn1ccc(=O)n(Cc2nn[nH]n2)c1=O)C(=O)O` gave a Ki above 100 µM. This compound gave a 50% inhibitory concentration (IC50) in test [1] of 45.4 µM.
In [1], `N[C@@H](Cn1ccc(=O)n(Cc2ccc(-c3nn[nH]n3)cc2)c1=O)C(=O)O` gave a half-inhibitory concentration (IC50) of 50.9 µM.
`N[C@@H](CCC(=O)O)C(=O)O` [GLUTAMIC ACID]: the EC50 (usually the midpoint of the concentration-response curve) turned out to be 27 µM in test [6] and 35 µM in [7].
`N[C@@H](Cn1ccc(=O)n(Cc2ccoc2C(=O)O)c1=O)C(=O)O` returned an inhibition constant Ki in [5] above 100 µM. Besides, in test [1], the IC50 stood at 11.7 µM.
On the same counts, the results for `N[C@@H](Cn1ccc(=O)n(CCc2nnn[nH]2)c1=O)C(=O)O` are above 100 µM and 6.87 µM.
On the same counts, the results for `NC(Cn1ccc(=O)n(Cc2ccc(P(=O)(O)O)cc2)c1=O)C(=O)O` (racemic) are above 1000 µM and 107 µM.
`N[C@@H](Cn1cc(I)c(=O)n(CCc2nn[nH]n2)c1=O)C(=O)O` gave an IC50 in [1] of 3.73 µM.
As to `N[C@@H](Cn1ccc(=O)n(Cc2ccsc2C(=O)O)c1=O)C(=O)O`, the outcome (in [8]; in test [9]; at Glutamate receptor 1 [11]; in test [12]; at Glutamate receptor 4; in test [13]) was inactive. The IC50 came out at 0.68 µM in [10], 0.62 µM in test [2], 1.21 µM in [3] and 31.2 µM in [1]. The same compound yielded a Ki in test [5] above 100 µM. Besides, in test [1], the dissociation constant Kd (usually a measure of binding affinity in units of concentration) came out at 71.4 µM.
Regarding `N[C@@H](Cn1ccc(=O)n(Cc2ccc(S(=O)(=O)O)cc2)c1=O)C(=O)O`, in [5], the Ki was above 100 µM. In test [1], the 50% inhibitory concentration (IC50) worked out at 49 µM.
For `N[C@@H](Cn1ccc(=O)n(CCC(=O)O)c1=O)C(=O)O`, the Ki in [5] was above 1000 µM.
